From patent publication US4076725A, “Derivatives of streptovaricin ansamycins” (University of Illinois Foundation, priority 1976, dated 1978)
Values after ≈ are worked out from the molar mass of the structure shown.

How the values were obtained:
[1] = test system: reverse transcriptase (RNA-directed DNA polymerase); test: Reverse transcriptase (RNA-directed DNA polymerase) inhibition; format: biochemical; conditions: concentration not given
From the text: The assay and work-up conditions for reverse transcriptase analysis were essentially those described by Brockman, et al., (Nature, 230, 249 (1971)), except for eliminating the phosphate from the washing solution (10% trichloroacetic acid).

[2] = test system: AKR cells; test: AKR growth inhibition (AKR cells in culture); format: cell-based; conditions: 37° C, 3 days, concentration not given
Procedure: The assay for inhibition of AKR cells in culture was as follows. Four ml. of cells (ca. 1×10^4 cells/ml.) were pipetted into sterilized plastic culture tubes with screw caps (16×125 mm.; Falcon Plastics, Oxnard, California). The experiment was initiated by adding 1.0 ml. of medium or drug at different concentrations and incubating at 37° C for 3 days. Cell growth was determined twice a day for 3 days. The percent inhibition was calculated from the controls (no drug).

[3] = molecular target: E. coli RNA polymerase (Escherichia coli, UniProt P0A8V2); test: Bacterial RNA polymerase inhibition; format: biochemical
Procedure: The assay for bacterial RNA polymerase followed the procedure of Reusser (J. Bacterial., 105, 580 (1971)). Assay mixtures were prepared containing in a total volume of 0.25 ml.: Tris-hydrochloride buffer, pH 7.9, 5 μmoles; MgCl2, 1 μmole; mercaptoethanol, 3 μmoles; MnCl2, 0.25 μmole; guanosine triphosphate, cytidine triphosphate, uridine triphosphate, 0.1 μmole each; adenosine triphosphate 8-14C, 0.1 μmole containing 0.05 μCi; dAT, 0.2 units; polymerase, ~35 μg. The reaction mixtures were incubated at 30° C for 15 min.

[4] = test system: S. lutea; test: S. lutea bacterial inhibition (MIC, broth dilution); format: cell-based; conditions: Micrococcus luteus; 37°, 16-18 hours
Procedure: The assay for S. lutea inhibition was as follows. Water-soluble preparations were dissolved in brain heart infusion broth (Difco) to 1 mg./ml. Water-insoluble preparations were dissolved (or suspended) in dimethylformamide to 10 mg./ml. and diluted with brain heart broth to 1 mg./ml. Two-fold serial dilutions were made with broth starting with 1 mg./ml. with final volumes of 01. ml. per dilution. Overnight bacterial cultures were diluted 1:20,000 with brain heart and 0.1 ml. of diluted culture was added to each dilution of antibiotic (final total volume was 0.2 ml.). This was all done in plastic microtest plates (Microtest II Tissue Culture Plate, Bioquest). The plates were incubated at 37° for 16-18 hours and the minimum inhibitory concentrations (MIC) were recorded as the smallest concentration in which no visible growth occurred.

[5] = test system: B. subtilis; test: B. subtilis bacterial inhibition (paper disc, agar plate); conditions: Bacillus subtilis, read-out: Zone (mm.) inhibition
Procedure: The assay for B. subtilis bacterial inhibition was obtained on plates with B. subtilis UC 564 spores in agar with the following composition per liter:
After autoclaving, 10 ml. of 20% glucose was added. The seeding rate was approximately 10^9 spores per liter. Test solutions were applied to 1/2-inch paper discs (Schleicher & Schuell 740E) with 0.08 ml. per disc.

[6] = test system: DNA-directed DNA polymerase; test: DNA-directed DNA polymerase inhibition; format: biochemical; conditions: concentration not given
Procedure: The assay and work-up conditions for DNA polymerase were essentially those described by Magee (Virology, 17, 604 (1962)). The reaction mixture contained […]: potassium phosphate (pH 7.4), 15; EDTA, 2; ATP, 0.05; Mg^++, 2.5; triphosphates of CdR, deoxyguanosine, and AdR, 0.01 each; TdR triphosphate-^3 H, 0.01 (100 mCi/mmol.); DNase-treated E. coli DNA, 0.2 mg.; and cell sonicate, 0.2 mg. protein in a total volume of 0.5 ml. After incubation at 37° C for up to 60 minutes with continual gentle shaking, the reactions were stopped by the addition of carrier DNA […] and PCA (to 0.5 N) containing 2% Celite. The pellet was washed with PCA, dissolved in 1 N NaOH, reprecipitated and washed with PCA, extracted with 0.15 ml. 0.5 N PCA (70°) for 20 minutes, and counted in 12 ml. of Diotol.

Chain of E. coli RNA polymerase (P0A8V2 whole entry): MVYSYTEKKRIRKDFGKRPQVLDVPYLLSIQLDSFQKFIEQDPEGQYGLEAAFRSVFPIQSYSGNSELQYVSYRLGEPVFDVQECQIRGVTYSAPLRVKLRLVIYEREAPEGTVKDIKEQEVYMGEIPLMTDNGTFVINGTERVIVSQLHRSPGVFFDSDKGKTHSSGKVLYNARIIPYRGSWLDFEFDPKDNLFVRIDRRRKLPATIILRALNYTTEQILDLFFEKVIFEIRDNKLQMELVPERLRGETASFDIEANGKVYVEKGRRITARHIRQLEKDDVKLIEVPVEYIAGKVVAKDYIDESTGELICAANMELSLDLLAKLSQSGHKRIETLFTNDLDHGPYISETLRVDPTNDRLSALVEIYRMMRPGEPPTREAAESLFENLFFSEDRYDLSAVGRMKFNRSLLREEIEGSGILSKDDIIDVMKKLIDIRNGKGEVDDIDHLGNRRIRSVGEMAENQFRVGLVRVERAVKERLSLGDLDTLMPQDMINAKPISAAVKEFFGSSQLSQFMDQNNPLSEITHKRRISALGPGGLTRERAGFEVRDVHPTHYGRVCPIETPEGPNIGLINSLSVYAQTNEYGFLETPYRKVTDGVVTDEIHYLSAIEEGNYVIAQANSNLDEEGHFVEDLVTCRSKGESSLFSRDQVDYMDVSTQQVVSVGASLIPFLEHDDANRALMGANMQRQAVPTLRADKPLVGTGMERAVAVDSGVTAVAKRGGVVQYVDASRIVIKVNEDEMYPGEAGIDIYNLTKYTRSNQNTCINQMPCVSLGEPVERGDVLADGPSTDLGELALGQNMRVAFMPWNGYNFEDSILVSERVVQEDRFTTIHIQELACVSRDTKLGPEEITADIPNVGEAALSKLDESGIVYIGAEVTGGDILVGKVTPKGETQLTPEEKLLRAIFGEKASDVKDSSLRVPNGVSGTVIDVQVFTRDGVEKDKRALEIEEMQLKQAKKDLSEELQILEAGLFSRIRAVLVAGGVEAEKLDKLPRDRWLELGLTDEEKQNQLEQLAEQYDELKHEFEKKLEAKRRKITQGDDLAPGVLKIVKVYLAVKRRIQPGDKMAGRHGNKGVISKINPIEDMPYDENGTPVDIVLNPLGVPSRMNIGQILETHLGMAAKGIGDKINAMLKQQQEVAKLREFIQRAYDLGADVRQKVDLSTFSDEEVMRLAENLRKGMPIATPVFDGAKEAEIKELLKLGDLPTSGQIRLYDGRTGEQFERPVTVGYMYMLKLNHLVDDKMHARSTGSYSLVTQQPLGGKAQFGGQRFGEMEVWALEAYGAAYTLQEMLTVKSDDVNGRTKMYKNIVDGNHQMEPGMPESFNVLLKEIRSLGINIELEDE
Chain of E. coli RNA polymerase (P0A8T7 whole entry partner): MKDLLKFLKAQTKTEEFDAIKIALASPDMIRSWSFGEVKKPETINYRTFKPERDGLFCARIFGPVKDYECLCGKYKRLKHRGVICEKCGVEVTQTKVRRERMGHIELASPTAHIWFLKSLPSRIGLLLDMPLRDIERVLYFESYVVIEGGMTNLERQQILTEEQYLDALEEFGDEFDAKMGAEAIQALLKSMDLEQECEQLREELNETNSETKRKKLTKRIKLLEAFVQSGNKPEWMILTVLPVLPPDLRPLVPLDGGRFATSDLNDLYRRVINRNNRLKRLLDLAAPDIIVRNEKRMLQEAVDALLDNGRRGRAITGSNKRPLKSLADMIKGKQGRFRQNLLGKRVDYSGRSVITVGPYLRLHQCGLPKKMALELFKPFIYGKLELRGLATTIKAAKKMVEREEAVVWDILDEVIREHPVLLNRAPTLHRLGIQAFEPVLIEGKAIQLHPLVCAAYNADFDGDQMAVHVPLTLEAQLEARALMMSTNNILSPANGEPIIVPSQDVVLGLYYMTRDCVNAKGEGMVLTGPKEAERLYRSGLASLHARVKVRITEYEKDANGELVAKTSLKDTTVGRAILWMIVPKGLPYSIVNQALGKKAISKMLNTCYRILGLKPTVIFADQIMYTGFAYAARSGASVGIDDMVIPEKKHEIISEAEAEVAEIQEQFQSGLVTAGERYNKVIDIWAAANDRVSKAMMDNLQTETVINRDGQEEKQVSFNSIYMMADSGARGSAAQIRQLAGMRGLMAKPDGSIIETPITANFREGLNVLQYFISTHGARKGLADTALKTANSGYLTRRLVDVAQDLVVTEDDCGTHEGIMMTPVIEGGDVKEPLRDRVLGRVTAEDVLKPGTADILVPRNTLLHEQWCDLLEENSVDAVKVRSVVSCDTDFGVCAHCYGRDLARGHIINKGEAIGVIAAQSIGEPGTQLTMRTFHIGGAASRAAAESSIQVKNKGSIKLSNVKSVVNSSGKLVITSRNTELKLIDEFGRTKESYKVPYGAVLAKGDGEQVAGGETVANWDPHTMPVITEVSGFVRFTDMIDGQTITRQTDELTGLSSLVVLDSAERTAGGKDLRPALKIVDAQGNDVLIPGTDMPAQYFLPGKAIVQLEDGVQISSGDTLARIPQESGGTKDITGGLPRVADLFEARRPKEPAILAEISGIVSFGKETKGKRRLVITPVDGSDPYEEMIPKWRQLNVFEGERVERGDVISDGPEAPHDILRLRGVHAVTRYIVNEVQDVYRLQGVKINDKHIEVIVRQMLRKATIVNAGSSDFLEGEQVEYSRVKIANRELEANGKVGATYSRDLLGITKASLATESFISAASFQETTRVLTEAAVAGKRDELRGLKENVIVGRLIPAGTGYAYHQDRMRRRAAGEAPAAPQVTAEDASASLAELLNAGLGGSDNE
Chain of E. coli RNA polymerase (P0A7Z4 whole entry partner): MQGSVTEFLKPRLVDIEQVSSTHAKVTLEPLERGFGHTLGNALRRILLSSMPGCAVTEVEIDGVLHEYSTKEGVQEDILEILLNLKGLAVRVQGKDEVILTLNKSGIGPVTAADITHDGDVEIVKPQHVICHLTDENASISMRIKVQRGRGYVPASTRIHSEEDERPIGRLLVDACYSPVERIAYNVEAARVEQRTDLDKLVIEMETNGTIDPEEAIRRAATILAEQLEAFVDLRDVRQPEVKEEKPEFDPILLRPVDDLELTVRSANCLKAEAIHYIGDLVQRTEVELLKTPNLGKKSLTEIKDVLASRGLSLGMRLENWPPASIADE
Chain of E. coli RNA polymerase (P0A800 2-91 partner limits assumed): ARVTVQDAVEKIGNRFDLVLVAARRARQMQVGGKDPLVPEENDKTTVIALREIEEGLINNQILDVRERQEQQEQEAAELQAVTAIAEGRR

SMILES | % inhibition [1] | % inhibition [2] | % inhibition ([3]; 0.1 μmole/ml.) | MIC [4] | zone of inhibition at 250 µM [5] | % inhibition [6] | % inhibition ([3]; 0.01 μmole/ml. (Streptovaricin C))
COC(=O)C(C(O)C(C)C=O)C(OC(C)=O)C(C)C(O)C(C)(O)C=C(C)C1=C2C(=C(C)C(=O)c3c(O)c(NC(=O)C(C)=CC=CC(C)=O)c(C)c(OC(C)=O)c32)OCO1 (centres unmarked) [Isostreptoval A] | 7.8% | 10.7% | 21% | 80 µg/mL (≈ 96.9 µM) | 16 mm |  | 
COC(=O)C(C(O)C(C)C=O)C(O)C(C)C(O)C(C)(O)C=C(C)C1=C2C(=C(C)C(=O)c3c(O)c(NC(=O)C(C)=CC=CC(C)=O)c(C)c(OC(C)=O)c32)OCO1 (centres unmarked) [Isostreptoval G] |  |  | 52% |  |  |  | 
CC(=O)C=CC=C(C)C(=O)Nc1c(C)c(OC(C)=O)c2c(c1O)C(=O)C(C)=C1OCOC(C(C)=CC(C)=O)=C12 [Prestreptovarone] | 60.1% |  | 0% |  |  | 35.4% | 
COC(=O)C1C(OC(C)=O)C(C)C(O)OC1C(C)C(O)C(C)(O)C=CC=C(C)C(=O)Nc1c(C)c(OC(C)=O)c2c(c1O)C(=O)C(C)=C1OCOC(C(C)=CC(C)=O)=C12 (centres unmarked) [Streptoval A] | 100.0% |  | 35% | 80 µg/mL (≈ 96.9 µM) | 17 mm |  | 
COC(=O)C1C(OC(C)=O)C(C)C(O)OC1C(C)C(O)C(C)C=CC=C(C)C(=O)Nc1c(C)c(OC(C)=O)c2c(c1O)C(=O)C(C)=C1OCOC(C(C)=CC(C)=O)=C12 (centres unmarked) [Streptoval B] | 99.0% |  |  |  |  |  | 
COC(=O)C1C(OC(C)=O)C(C)C(OC(C)=O)OC1C(C)C(OC(C)=O)C(C)C=CC=C(C)C(=O)Nc1c(C)c(OC(C)=O)c2c(c1O)C(=O)C(C)=C1OCOC(C(C)=CC(C)=O)=C12 (centres unmarked) [Streptoval C Triacetate-A] | 86.2% |  |  |  |  |  | 
COC(=O)C(C(OC(C)=O)C(C)C=O)C(OC(C)=O)C(C)C(OC(C)=O)C(C)C=CC=C(C)C(=O)Nc1c(C)c(OC(C)=O)c2c(c1O)C(=O)C(C)=C1OCOC(C(C)=CC(C)=O)=C12 (centres unmarked) [Streptoval C Triacetate-B] | 97.3% |  |  |  |  |  | 
COC(=O)C1C(O)C(C)C(O)OC1C(C)C(O)C(C)C=CC=C(C)C(=O)Nc1c(C)c(OC(C)=O)c2c(c1O)C(=O)C(C)=C1OCOC(C(C)=CC(C)=O)=C12 (centres unmarked) [Streptoval C] | 84.0% | 2.1% |  |  | 0 mm | 9.2% | 
COC(=O)C1C(O)C(C)C(O)OC1C(C)C(=O)C(C)C=CC=C(C)C(=O)Nc1c(C)c(OC(C)=O)c2c(c1O)C(=O)C(C)=C1OCOC(C(C)=CC(C)=O)=C12 (centres unmarked) [Streptoval E] | 95.7% |  | 7% | 75 µg/mL (≈ 97.9 µM) | 0 mm |  | 
CC(=O)C=C(C)C1=C2C(=C(C)C(=O)c3c(O)c(NC(=O)C(C)=CC=CC(C)(O)C4OC(=O)C5C(O)C(C)C(O)OC5C4C)c(C)c(OC(C)=O)c32)OCO1 (centres unmarked) [Streptoval F] | 8.3% |  |  |  |  |  | 
COC(=O)C1C(OC(C)=O)C(C)C(OC(C)=O)C(C)(O)C=CC=C(C)C(=O)Nc2c(C)c(OC(C)=O)c3c(c2O)C(=O)C(C)=C2OCOC(=C23)C(C)=CC(C)(O)C(OC(C)=O)C(C)C1OC(C)=O (centres unmarked) [Streptovaricin A Triacetate] | 76.0% |  |  |  |  |  | 
COC(=O)C1C(OC(C)=O)C(C)C(OC(C)=O)C(C)C=CC=C(C)C(=O)Nc2c(C)c(OC(C)=O)c3c(c2O)C(=O)C(C)=C2OCOC(=C23)C(C)=CC(C)(O)C(OC(C)=O)C(C)C1OC(C)=O (centres unmarked) [Streptovaricin C Tetra-acetate] | 80.0% |  |  |  |  |  | 
COC(=O)C1C(OC(C)=O)C(C)C(OC(C)=O)C(C)C=CC=C(C)C(=O)Nc2c(C)c(OC(C)=O)c3c(c2O)C(=O)C(C)=C2OCOC(=C23)C(C)=CC(C)(O)C(O)C(C)C1OC(C)=O (centres unmarked) [Streptovaricin C Triacetate] | 79.0% |  |  |  |  |  | 
COC(=O)C1C(O)C(C)C(O)C(C)C=CC=C(C)C(=O)Nc2c(C)c(OC(C)=O)c3c(c2O)C(=O)C(C)=C2OCOC(=C23)C(C)=CC(C)(O)C(O)C(C)C1O (centres unmarked) [Streptovaricin C, reference compound] | 47.9% | 8.9% |  |  | 22 mm | 0% | 66%
CC(=O)C=C(C)C1=C2C(=C(C)C(=O)c3c(O)c(NC(=O)C(C)=O)c(C)c(OC(C)=O)c32)OCO1 [Streptovarone] | 59.4% | 0.4% | 0% |  | 0 mm | 12.2% | 
